The record followed here is patent US20130052172A1, “METHODS FOR DIAGNOSING AND TREATING CARDIAC DEFECTS” (priority 2011, published 2013).

“And” between values parts separate entries of the source, which are not always exact repeats. Identical values can stand only once. “Also recorded” adds a separate entry of the source. A value given as a limit tells only on which side of the number the result lay.

One data set relates to Dahl S rats. Kind of data set: In vivo regional myocardial ischemia/reperfusion, infarct size (IS/AAR). More on the design: species or system rat. An excerpt:
An anesthetized rat model was used for in vivo ischemia/reperfusion studies using the general surgical protocol and determination of infarct size (IS) described in “K(ATP) opener-induced delayed cardioprotection: involvement of sarcolemmal and mitochondrial K(ATP) channels, free radicals and MEK½” (Gross, E. et al., J. Mol. Cell. Cardiol. 35, 985-992, 2003), the entirety of which is incorporated herein by reference. Briefly, following anesthesia, a tracheotomy for artificial ventilation was performed, with the left common carotid artery cannulated for blood pressure and heart rate measurements. A thoracotomy was performed at the fifth intercostal space, the pericardium was excised, and a silk ligature was placed distal to the left atrial appendage that spanned to the sternal portion of the left ventricle, which included the left anterior descending coronary artery. Occlusion of the area described [area at risk (AAR)] was created by placing ends of the ligature through a polypropylene tube and fixing the snare to the epicardial surface with a hemostat. After 30 min, the hemostat was released to reperfuse the AAR. Following 2 h of reperfusion, the ligature was again occluded, and the AAR was determined by patent-blue negative staining. The heart was then excised, cross-sectioned into 4 to 5 slices, and separated into normal zone and AAR. Pieces were incubated in 1% 2,3,5-triphenyltetrazolium chloride to determine IS. The heart was then incubated overnight in 10% formaldehyde, and infarcted tissue was dissected from the AAR. IS was expressed as a percentage of the AAR (IS/AAR). Leptin (0.12 μg/kg) was administered intravenously as a bolus at 24 and 12 h before ischemia. Amino acids were administered intravenously as a bolus at 24 and 12 hours before ischemia or dissolved in the drinking water and given 48 hours before ischemia.

The nature of data set [1]: Blood levels of orally administered antibiotics. It is filed as in vivo, rat. The note with it: antibiotic given in drinking water; detection limit of assay 1 μM. From the text: Dahl S rats are an established model of increased susceptibility to injury from myocardial ischemia/reperfusion (Baker, J. et al. “Resistance to myocardial ischemia in five rat strains: is there a genetic component of cardioprotection?” Am. J. Physiol. Heart Circ. Physiol. 278, H1395-H1400, 2000, Shi, Y. et al. “Increased resistance to myocardial ischemia in the Brown Norway vs. Dahl S rat: role of nitric oxide synthase and Hsp90.” J. Mol. Cell. Cardiol. 38(4):625-635, 2005). […] A minimum treatment time of 48 h with vancomycin was needed to decrease IS. A return to control values for myocardial IS at 72 h following discontinuation of vancomycin was observed (FIG. 5). To determine whether this decrease in IS was a direct effect of antibiotic present in the coronary vasculature, blood levels of vancomycin were measured. The concentration of vancomycin in blood was below detection limits of the assay used (1 μM). […]
Infarct size was measured in rats treated with the antibiotic mixture using the method described in example 3. […] To determine whether the decrease in infarct size was a direct effect of antibiotics present in the coronary vasculature, blood levels of streptomycin, neomycin, bacitracin and polymyxin B were measured. […]

For the next data set, the system named is leptin. Kind of data set: Plasma cytokine analysis (leptin). The class given is in vivo, rat. The following applies: vancomycin in drinking water, d 6 vs d 0. On the procedure: The concentration of cytokines in blood of rats treated with vancomycin was quantified to identify antibiotic-induced changes. […] Blood samples were kept on ice for 30 min and then centrifuged at 1000 g for 10 min at 4° C. to obtain plasma. Plasma samples were then analyzed to determine the concentration of 23 cytokines (Eve Technologies, Calgary, AB, Canada). Antibiotic was administered continuously via drinking water as described in example 1.

A further data set relates to isolated hearts. Put plainly: In vitro global ischemia/reperfusion of isolated perfused hearts, infarct size and recovery of LVDP. Set-up: species or system rat. On the procedure:
For in vitro ischemia/reperfusion studies, hearts were perfused retrogradely, as described previously in Baker, J. et al. (Am. J. Physiol. Heart Circ. Physiol., 2000), the entirety of which is incorporated herein by reference. Briefly, hearts were perfused with modified Krebs-Henseleit buffer (120 mM NaCl, 25 mM NaHCO3, 4.7 mM KCl, 1.2 mM KH2PO4, 1.20 mM MgSO4, 11 mM glucose, and 1.8 mM CaCl2) bubbled with 95% O2-5% CO2 for a 40-minute stabilization period and subjected to 25 minutes of global no-flow ischemia, followed by 180 minutes of reperfusion. Before use, all perfusion fluids were filtered through cellulose acetate membranes with a pore size of 5.0 μm to remove particulate matter. Hearts were kept in temperature-controlled chambers to maintain myocardial temperature at 37° C. A balloon connected to a pressure transducer was inserted into the left ventricle to monitor cardiac function. For some experiments, hearts were stabilized for 25 minutes and then perfused with vancomycin or a mixture of antibiotics for 15 minutes before ischemia/reperfusion. During the initial 40 minute reperfusion period, recovery of mechanical function was measured as left ventricular developed pressure (LVDP) under steady-state conditions and expressed as a percentage of preischemic LVDP. At the end of the 3 hour reperfusion period, hearts were processed and stained with 2,3,5-triphenyltetrazolium chloride dye for IS determination.

The subject of another data set is intestinal microbiota. Put plainly: Fecal microbiota abundance by 16S/18S rRNA quantitative PCR. The class given is in vivo, rat. The method, then:
In the following example, methods for quantifying microbiota abundance in rat feces are described. Fresh fecal pellets were obtained from each rat prior to (day 0) and at day 6 to 7 post treatment. Pellets were homogenized in 1 ml PBS. 200 μl of homogenate was used for microbial DNA isolation using a QIAamp DNA Stool Mini Kit (Qiagen, Valencia, Calif.). Isolated DNA samples were subjected to quantitative PCR using an iCycler (Bio-Rad, Hercules, Calif.) for microbial population enumeration. PCR reaction mixture consisted of 50% iQ SYBR Green Supermix (Bio-Rad), 0.4 μM forward and reverse primers, and 3.8% template solution in RNase/DNase free water. Primer sets specific for 16s and 18s rRNA genes of particular microbial phylum, class, genus, and species (M. smithii and L. plantarum) along with 20 reaction temperature and reference strains are detailed in FIG. 2 and Table 1.

Turning to `CN[C@H](CC(C)C)C(=O)N[C@H]1C(=O)N[C@@H](CC(N)=O)C(=O)N[C@H]2C(=O)N[C@H]3C(=O)N[C@H](C(=O)N[C@H](C(=O)O)c4cc(O)cc(O)c4-c4cc3ccc4O)[C@H](O)c3ccc(c(Cl)c3)Oc3cc2cc(c3O[C@@H]2O[C@H](CO)[C@@H](O)[C@H](O)[C@H]2O[C@H]2C[C@](C)(N)[C@H](O)[C@H](C)O2)Oc2ccc(cc2Cl)[C@H]1O` [vancomycin, Vancomycin], the “reduction in myocardial IS” value with Dahl S rats (Dahl S rats, antibiotic in drinking water 7 d, in vivo regional ischemia/reperfusion) is listed as roughly 27%. The “effect on infarct size in vivo” value in the data set with Dahl S rats (antibiotic added to the drinking water) is listed as “reduced infarct size (IS) in vivo”. Also, the “decrease in infarct size” value in the data set with Dahl S rats (vancomycin 15 mg/kg/day for 72 hours, thrombopoietin i.v. 15 minutes prior to ischemia) is reported as 28%. Also, the concentration in blood in data set [1] is less than 1 µM. For the same compound, the “decrease in circulating leptin” value in the data set on leptin is 38±4% and 38%. Besides, the “effect on IS when added directly to coronary perfusate” value with isolated hearts (1 μM in perfusate, in vitro ischemia/reperfusion) is “no reduction in IS; also recorded: no effect on severity of myocardial infarction; also recorded: did not reduce IS in vitro”. The “effect on infarct size of isolated hearts” value with isolated hearts (antibiotic added to the drinking water, then excluded from coronary circulation) was “reduced IS”. The “decrease in IS” value in the data set on isolated hearts (antibiotic in drinking water, then excluded from coronary perfusate, in vitro ischemia/reperfusion) is reported as 29%. For the same compound, in the data set with isolated hearts (vancomycin in drinking water), the “time after treatment ceased at which cardioprotection was lost” value worked out at 3 days and the “time of treatment within which cardioprotection was established” value was no more than 2 days. For the same compound, the “total bacterial/microbial numbers in feces” value in the data set with intestinal microbiota (oral antibiotic in drinking water, Dahl S rats) is on record as “reduced total bacterial numbers; also recorded: reduced total microbial numbers; also recorded: reduce overall bacterial numbers”. For the same compound, in the data set with intestinal microbiota (oral antibiotic treatment), the “change of Bacilli abundance in feces” value is reported as “increased two fold”, the “change of Lactobacillales abundance in feces” value is on record as “increase abundance”, the “change of Proteobacteria abundance in feces” value was “increase abundance” and the “increase of Proteobacteria in feces” value was found to be 120 fold.
